Measured values taken from article PMC9599613 (Biomolecules, 2022).

Key:
[1] = molecular target: T1, butyrylcholinesterase (BChE) (Equus caballus, UniProt P81908); assay: Anticholinesterase assay (Ellman's), BChE inhibition; format: biochemical, equine
T1 construct: butyrylcholinesterase (BChE, obtained from equine serum); from tissue; host or cells: equine serum
Experimental: This enzyme method relied on the hydrolytic of acetyl cholinethioiodide (ATChI) by acetylcholinesterase and butyrylthiocholine iodide (BTchI) by butyrylcholinesterase. As a result of this breakdown, 5-thio-2-nitrobenoate anions formed. […] The absorption was measured with a spectrophotometer, as per the protocols. […] An amount of 0.1 M phosphate buffer (8.0 ± 0.1 pH) solution was prepared, whose final pH was adjusted by using the KOH solution.
In this assay, 50 µL enzyme solution and 50 µL DTNB reagent were added to 1 mL test samples in a cuvette and then incubated at 30 °C for 15 min. Afterward, a 50 µL substrate solution was added to the mixture.

COX-1 = COX-1 (Homo sapiens, UniProt P23219); assay: biochemical; conditions: read-out: % COX-1 Inhibition
COX-1, sequence (P23219 24-599): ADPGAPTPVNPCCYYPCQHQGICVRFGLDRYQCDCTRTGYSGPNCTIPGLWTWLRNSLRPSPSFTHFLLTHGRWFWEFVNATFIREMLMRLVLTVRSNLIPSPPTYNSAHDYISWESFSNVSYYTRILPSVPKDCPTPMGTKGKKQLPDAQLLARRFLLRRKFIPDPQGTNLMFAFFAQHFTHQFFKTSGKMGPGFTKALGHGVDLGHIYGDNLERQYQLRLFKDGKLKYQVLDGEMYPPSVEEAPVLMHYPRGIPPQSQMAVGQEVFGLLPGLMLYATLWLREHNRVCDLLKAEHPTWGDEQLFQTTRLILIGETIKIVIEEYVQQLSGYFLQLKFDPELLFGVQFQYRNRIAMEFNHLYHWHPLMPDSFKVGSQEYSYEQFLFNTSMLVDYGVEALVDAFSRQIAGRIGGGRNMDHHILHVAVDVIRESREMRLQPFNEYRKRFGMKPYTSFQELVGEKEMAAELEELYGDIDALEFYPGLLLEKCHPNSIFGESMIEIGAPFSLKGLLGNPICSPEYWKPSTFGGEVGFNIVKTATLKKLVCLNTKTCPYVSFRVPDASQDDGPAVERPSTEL
Experimental: The Cyclooxygenase enzymes (COX-1 and 2) inhibitory potential of our test compounds was determined according to the previously reported procedure. […] The enzyme solutions with a concentration of 0.7–0.8 μg/10 μL (COX-1) and 300 U/mL (COX-2) were prepared. To start the assay, for enzyme activation, 10 µL enzyme solution (kept in a cool temperature of 4 °C for 5 min) and cofactor containing hematin (50 µL, 1 mM), glutathione (0.9 mM) and TMPD in a Tris-buffer (0.1 M) with a pH 8.0 was added. After that, 60 µL of the enzyme solution was added to 20 µL of the test samples of various concentrations and incubated at room temperature for 5 to 10 min. Then, 20 µL of arachidonic acid (30 mM) was added to start the reaction. The mixture was then again incubated for 15 min at 37 °C, and absorbances were measured at 570 nm with UV-visible spectrophotometer. […] The % enzyme inhibitions were calculated by using the previously reported formula.

human recombinant 5-LOX = molecular target: T2, human recombinant 5-LOX (Homo sapiens, UniProt P09917); assay: biochemical
T2 sequence (P09917 1-674): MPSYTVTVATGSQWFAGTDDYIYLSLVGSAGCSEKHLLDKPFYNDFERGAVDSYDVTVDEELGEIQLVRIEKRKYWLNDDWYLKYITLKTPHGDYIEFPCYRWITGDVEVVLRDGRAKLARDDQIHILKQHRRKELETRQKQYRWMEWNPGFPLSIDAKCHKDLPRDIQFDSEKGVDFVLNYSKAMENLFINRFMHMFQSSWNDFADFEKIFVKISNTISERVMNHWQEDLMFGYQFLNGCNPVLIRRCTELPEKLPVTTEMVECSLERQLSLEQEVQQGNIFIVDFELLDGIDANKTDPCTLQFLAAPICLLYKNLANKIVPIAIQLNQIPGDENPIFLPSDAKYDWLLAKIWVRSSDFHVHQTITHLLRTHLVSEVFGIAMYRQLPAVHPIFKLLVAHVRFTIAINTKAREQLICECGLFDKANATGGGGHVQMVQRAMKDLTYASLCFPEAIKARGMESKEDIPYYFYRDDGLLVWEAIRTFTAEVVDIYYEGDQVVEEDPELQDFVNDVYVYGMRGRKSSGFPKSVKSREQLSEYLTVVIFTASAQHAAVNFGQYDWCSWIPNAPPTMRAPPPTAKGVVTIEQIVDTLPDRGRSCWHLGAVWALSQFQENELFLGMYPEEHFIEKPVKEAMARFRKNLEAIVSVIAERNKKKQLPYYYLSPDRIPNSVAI
Experimental: The lipoxygenase assay on our test compounds was performed by utilizing human recombinant 5-LOX [65]. […] The enzyme solution with a concentration of 10,000 U/mL was prepared, whereas 80 mM linoleic acid solution was used as a substrate. Solutions were prepared in a phosphate buffer (50 mM) with a pH of 6.3, which was also utilized as the blank. To start, various concentrations of our test samples were dissolved in 0.25 mL of the buffer, to which 0.25 mL enzyme solution was added and incubated at 25 °C for 5 min. Afterward, the substrate solution (0.1 mL) was added to the mixture and shaken well. […] In this assay, the standard drug was montelukast, and using the following formula, the % inhibitions were calculated: % enzyme inhibition=X−X1/X×100 where X = absorbance of the negative control (with no test sample), and X1 = absorbance of the test compound.

[2] = ABTS free radical scavenging assay
Experimental: The antioxidant potentials of isolated phytosteroids 1 and 2 were also determined using the ABTS (2,2′-azino-bis(3-ethylbenzothiazoline-6-sulfonic acid)) standard method. […] This created free radicals within the sample. Afterward, the addition of 50% methanol and the ABTS radical cation solution were adjusted to pH 7.4 by dilution with the phosphate buffer (pH 7.4). […] The positive control was ascorbic acid, and the assay was repeated in triplicate. The percent radical scavenging potential of the test compounds was calculated using the standard reported formula.

[3] = DPPH free radical scavenging assay
Experimental: The antioxidant potentials of isolated compounds (phytosteroids 1 and 2) were determined following the DPPH standard assay. Initially, DPPH (24 mg) was dissolved in methanol (100 mL). Stock solutions of the test compounds were prepared in different dilutions (62.50–1000 μg/mL). From each dilution, 1 mL was mixed with 1 mL of the DPPH solution. The solution mixtures were incubated at room temperature for 0.5 h. Afterward, absorbance was recorded at 517 nm with a UV-visible spectrophotometer. Ascorbic acid was the standard drug, whereas the DPPH solution without the compound was negative control. The percent radical scavenging potential of the test compounds was calculated using the following formula: % DPPH activity=X−X1/X×100 where X = absorbance of the control, and X1 = absorbance of the test compound.

[4] = 1000 μg/mL, listed as compound 2

T1 sequence (P81908 whole entry): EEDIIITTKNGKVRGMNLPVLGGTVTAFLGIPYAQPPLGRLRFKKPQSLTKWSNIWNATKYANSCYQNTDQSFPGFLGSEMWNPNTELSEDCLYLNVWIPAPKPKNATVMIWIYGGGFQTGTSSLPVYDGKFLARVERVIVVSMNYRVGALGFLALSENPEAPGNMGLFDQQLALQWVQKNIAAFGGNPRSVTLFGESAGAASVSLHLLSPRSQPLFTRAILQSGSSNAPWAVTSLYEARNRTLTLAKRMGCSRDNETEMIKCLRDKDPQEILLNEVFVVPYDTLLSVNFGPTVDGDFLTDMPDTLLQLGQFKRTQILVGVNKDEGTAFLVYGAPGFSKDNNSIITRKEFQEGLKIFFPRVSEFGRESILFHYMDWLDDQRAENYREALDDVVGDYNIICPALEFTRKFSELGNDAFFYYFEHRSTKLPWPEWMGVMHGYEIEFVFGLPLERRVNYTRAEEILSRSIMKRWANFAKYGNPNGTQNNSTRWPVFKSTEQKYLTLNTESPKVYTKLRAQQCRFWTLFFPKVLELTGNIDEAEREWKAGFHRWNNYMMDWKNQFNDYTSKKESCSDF

CCC(CCC(C)C1CCC2C3CCC4=CC(=O)CCC4(C)C3CCC12C)C(C)C (stereo not shown) [Compound 2, 17-(5-ethyl-6-methylheptan-2-yl)-10,13-dimethyl-1,2,6,7,8,9,10,11,12,13,14,15,16,17-tetradecahydro-3H-cyclopenta[a]phenanthren-3-one]
IC50 [1]: 25.8 µM | Percent BChE (mean ± SEM) ([1]; 62.5 μg/mL): 61.35 ± 0.18 % | Percent BChE (mean ± SEM) ([1]; 125 μg/mL): 66.20 ± 0.15 % | Percent BChE (mean ± SEM) ([1]; 250 μg/mL): 73.42 ± 0.11 % | Percent BChE (mean ± SEM) ([1]; 500 μg/mL): 78.62 ± 0.17 % | Percent BChE (mean ± SEM) ([1]; 1000 μg/mL): 83.53 ± 0.20 % | inhibition at 62.5 µg/mL (COX-1): 32.5 ± 0.65% | inhibition at 125 µg/mL (COX-1): 37.7 ± 0.45% | inhibition at 250 µg/mL (COX-1): 44.86 ± 0.02% | inhibition at 500 µg/mL (COX-1): 51.67 ± 0.11% | inhibition at 1000 µg/mL (COX-1): 57.6 ± 1.18% | IC50 (human recombinant 5-LOX; read-out: 5-LOX IC50 (converted)): 21.1 µM | inhibition at 62.5 µg/mL (human recombinant 5-LOX; read-out: % 5-LOX Inhibition): 63.47 ± 0.56% | inhibition at 125 µg/mL (human recombinant 5-LOX; read-out: % 5-LOX Inhibition): 67.74 ± 0.61% | inhibition at 250 µg/mL (human recombinant 5-LOX; read-out: % 5-LOX Inhibition): 73.67 ± 0.61% | inhibition at 500 µg/mL (human recombinant 5-LOX; read-out: % 5-LOX Inhibition): 78.76 ± 0.58% | inhibition at 1000 µg/mL (human recombinant 5-LOX; read-out: % 5-LOX Inhibition): 85 ± 0.3% | ABTS IC50 [2]: 185.83 µg/mL | Percent ABTS Activity (mean ± SEM) ([2]; 62.5 μg/mL): 41.34 ± 1.01 % | Percent ABTS Activity (mean ± SEM) ([2]; 125 μg/mL): 46.73 ± 0.78 % | Percent ABTS Activity (mean ± SEM) ([2]; 250 μg/mL): 51.37 ± 1.65 % | Percent ABTS Activity (mean ± SEM) ([2]; 500 μg/mL): 57.85 ± 0.97 % | Percent ABTS Activity (mean ± SEM) ([2]; 1000 μg/mL): 65.17 ± 0.72 % | Percent ABTS Activity (mean ± SEM) [2, 4]: 65.17 ± 0.72% | DPPH IC50 [3]: 218.83 µg/mL | Percent DPPH Activity (mean ± SEM) ([3]; 62.5 μg/mL): 33.00 ± 1.15 % | Percent DPPH Activity (mean ± SEM) ([3]; 125 μg/mL): 42.67 ± 0.89 % | Percent DPPH Activity (mean ± SEM) ([3]; 250 μg/mL): 49.00 ± 0.58 % | Percent DPPH Activity (mean ± SEM) ([3]; 500 μg/mL): 63.03 ± 0.23 % | Percent DPPH Activity (mean ± SEM) ([3]; 1000 μg/mL): 71.33 ± 0.49 % | Percent DPPH Activity (mean ± SEM) [3, 4]: 71.33 ± 0.49%
